Measurements published in paper PMC9030254, “Target Hopping from Protein Kinases to PXR: Identification of Small-Molecule Protein Kinase Inhibitors as Selective Modulators of Pregnane X Receptor from TüKIC Library” (Cells, 2022).

Tests used:
Test in all cases: Kinase profiling
Format in all cases: biochemical
CK1alpha1 = target: T1, CK1alpha1 (Homo sapiens, UniProt P48729)
T1 construct: purchased ProQinase (Freiburg, Germany)
Method: (§1) The analysis was performed by ProQinase (Freiburg, Germany).

CDK5/p25NCK = target: T2, CDK5/p25NCK (Homo sapiens, UniProt Q00535)
T2 construct: purchased ProQinase (Freiburg, Germany)
Method: as §1

DNAPK = target: T3, DNAPK (Homo sapiens, UniProt P78527)
T3 construct: purchased ProQinase (Freiburg, Germany)
Method: as §1

CK1gamma1 = target: T4, CK1gamma1 (Homo sapiens, UniProt Q9HCP0)
T4 construct: purchased ProQinase (Freiburg, Germany)
Method: as §1

VEGFR1 = target: T5, VEGFR1 (Homo sapiens, UniProt P17948)
T5 construct: purchased ProQinase (Freiburg, Germany)
Method: as §1

MYLK3 = target: T6, MYLK3 (Homo sapiens, UniProt Q32MK0)
T6 construct: purchased ProQinase (Freiburg, Germany)
T6 sequence (Q32MK0 1-819): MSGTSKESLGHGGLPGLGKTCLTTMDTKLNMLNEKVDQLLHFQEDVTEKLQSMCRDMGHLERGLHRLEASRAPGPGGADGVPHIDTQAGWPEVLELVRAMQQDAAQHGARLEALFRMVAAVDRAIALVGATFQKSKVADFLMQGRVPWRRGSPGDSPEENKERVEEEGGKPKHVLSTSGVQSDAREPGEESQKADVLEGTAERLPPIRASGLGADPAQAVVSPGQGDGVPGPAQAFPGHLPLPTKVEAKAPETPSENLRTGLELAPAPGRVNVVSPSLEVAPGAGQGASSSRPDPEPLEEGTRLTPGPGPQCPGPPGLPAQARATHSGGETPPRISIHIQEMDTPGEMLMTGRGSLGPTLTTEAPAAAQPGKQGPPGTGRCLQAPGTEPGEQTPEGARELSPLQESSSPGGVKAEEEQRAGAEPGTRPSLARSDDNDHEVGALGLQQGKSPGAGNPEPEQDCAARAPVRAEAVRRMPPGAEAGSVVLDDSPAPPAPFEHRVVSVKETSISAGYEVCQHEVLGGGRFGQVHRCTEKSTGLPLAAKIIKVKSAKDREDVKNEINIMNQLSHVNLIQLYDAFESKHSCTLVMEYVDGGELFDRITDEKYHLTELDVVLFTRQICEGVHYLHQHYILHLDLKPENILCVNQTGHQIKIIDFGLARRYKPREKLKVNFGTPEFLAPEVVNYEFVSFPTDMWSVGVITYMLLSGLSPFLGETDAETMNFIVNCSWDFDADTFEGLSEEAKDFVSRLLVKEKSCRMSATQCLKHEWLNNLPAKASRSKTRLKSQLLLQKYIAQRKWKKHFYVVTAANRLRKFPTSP
Method: as §1

GRK5 = target: T7, GRK5 (Homo sapiens, UniProt P34947)
T7 construct: purchased ProQinase (Freiburg, Germany)
Method: as §1

TRKB = target: T8, TRKB (Homo sapiens, UniProt Q16620)
T8 construct: purchased ProQinase (Freiburg, Germany)
Method: as §1

SNARK = target: T9, SNARK (Homo sapiens, UniProt Q9H093)
T9 construct: purchased ProQinase (Freiburg, Germany)
T9 sequence (Q9H093 1-628): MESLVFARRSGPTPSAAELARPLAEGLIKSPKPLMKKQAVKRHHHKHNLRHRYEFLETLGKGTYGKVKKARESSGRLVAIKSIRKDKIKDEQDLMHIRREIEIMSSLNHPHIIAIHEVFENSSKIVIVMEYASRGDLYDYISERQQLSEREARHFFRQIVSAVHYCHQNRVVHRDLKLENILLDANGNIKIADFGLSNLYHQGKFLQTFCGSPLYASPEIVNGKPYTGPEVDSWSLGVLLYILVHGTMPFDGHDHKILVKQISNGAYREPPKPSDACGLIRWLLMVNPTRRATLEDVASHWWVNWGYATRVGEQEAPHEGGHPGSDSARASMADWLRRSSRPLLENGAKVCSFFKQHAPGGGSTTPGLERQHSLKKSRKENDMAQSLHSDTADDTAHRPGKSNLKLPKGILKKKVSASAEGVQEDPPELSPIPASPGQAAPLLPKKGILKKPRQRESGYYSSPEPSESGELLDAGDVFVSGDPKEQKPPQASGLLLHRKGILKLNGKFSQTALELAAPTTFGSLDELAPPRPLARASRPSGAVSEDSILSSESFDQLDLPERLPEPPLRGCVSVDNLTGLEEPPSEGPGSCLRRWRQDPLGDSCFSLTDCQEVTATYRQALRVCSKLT
Method: as §1

ITK = target: T10, ITK (Homo sapiens, UniProt Q08881)
T10 construct: purchased ProQinase (Freiburg, Germany)
T10 sequence (Q08881 1-620): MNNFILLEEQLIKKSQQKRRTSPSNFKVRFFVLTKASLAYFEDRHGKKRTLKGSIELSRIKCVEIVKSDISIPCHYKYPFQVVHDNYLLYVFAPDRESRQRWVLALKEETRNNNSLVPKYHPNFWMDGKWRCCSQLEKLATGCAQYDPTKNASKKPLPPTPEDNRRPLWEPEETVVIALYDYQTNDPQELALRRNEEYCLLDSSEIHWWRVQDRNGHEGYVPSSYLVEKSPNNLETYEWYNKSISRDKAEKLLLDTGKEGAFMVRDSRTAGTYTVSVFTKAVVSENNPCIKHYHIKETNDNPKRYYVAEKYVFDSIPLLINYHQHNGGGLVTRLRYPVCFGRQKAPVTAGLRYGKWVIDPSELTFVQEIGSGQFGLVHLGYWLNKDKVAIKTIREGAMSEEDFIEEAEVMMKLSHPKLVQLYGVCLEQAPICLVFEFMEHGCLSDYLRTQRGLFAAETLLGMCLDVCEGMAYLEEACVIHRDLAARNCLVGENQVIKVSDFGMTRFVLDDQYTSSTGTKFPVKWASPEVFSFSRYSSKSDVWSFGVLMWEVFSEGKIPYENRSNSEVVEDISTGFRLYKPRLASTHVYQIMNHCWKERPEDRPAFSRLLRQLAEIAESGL
Method: as §1

T8 sequence (Q16620 32-822): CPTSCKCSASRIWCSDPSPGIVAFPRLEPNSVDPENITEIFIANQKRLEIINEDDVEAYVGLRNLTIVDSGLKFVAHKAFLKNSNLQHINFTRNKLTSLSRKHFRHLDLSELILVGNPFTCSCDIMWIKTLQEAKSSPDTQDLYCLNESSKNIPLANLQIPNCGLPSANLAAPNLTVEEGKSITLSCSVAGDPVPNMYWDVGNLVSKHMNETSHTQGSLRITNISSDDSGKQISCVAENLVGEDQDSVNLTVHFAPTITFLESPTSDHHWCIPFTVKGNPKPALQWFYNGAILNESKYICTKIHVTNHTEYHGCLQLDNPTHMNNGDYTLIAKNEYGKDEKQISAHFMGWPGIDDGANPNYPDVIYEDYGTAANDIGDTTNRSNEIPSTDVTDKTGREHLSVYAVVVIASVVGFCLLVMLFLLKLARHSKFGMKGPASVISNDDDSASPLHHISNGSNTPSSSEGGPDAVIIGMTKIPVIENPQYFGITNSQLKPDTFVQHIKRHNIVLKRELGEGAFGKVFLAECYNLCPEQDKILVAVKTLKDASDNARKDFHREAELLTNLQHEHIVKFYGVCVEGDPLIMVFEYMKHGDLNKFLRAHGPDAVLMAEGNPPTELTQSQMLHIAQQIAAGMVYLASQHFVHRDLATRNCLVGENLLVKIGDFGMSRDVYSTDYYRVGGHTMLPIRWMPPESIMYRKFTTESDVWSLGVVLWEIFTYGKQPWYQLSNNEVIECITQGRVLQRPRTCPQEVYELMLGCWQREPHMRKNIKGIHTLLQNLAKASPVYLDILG
T1 sequence (P48729 whole entry): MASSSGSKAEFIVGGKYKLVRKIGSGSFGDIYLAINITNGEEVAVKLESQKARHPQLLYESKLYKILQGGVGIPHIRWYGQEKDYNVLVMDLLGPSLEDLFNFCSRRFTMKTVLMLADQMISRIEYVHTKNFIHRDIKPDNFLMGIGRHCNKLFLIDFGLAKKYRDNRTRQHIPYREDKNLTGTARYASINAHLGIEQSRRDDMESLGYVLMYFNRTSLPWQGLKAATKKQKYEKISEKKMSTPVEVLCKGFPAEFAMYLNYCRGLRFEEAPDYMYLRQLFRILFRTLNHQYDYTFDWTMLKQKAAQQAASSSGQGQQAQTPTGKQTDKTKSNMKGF
T5 sequence (P17948 27-1338): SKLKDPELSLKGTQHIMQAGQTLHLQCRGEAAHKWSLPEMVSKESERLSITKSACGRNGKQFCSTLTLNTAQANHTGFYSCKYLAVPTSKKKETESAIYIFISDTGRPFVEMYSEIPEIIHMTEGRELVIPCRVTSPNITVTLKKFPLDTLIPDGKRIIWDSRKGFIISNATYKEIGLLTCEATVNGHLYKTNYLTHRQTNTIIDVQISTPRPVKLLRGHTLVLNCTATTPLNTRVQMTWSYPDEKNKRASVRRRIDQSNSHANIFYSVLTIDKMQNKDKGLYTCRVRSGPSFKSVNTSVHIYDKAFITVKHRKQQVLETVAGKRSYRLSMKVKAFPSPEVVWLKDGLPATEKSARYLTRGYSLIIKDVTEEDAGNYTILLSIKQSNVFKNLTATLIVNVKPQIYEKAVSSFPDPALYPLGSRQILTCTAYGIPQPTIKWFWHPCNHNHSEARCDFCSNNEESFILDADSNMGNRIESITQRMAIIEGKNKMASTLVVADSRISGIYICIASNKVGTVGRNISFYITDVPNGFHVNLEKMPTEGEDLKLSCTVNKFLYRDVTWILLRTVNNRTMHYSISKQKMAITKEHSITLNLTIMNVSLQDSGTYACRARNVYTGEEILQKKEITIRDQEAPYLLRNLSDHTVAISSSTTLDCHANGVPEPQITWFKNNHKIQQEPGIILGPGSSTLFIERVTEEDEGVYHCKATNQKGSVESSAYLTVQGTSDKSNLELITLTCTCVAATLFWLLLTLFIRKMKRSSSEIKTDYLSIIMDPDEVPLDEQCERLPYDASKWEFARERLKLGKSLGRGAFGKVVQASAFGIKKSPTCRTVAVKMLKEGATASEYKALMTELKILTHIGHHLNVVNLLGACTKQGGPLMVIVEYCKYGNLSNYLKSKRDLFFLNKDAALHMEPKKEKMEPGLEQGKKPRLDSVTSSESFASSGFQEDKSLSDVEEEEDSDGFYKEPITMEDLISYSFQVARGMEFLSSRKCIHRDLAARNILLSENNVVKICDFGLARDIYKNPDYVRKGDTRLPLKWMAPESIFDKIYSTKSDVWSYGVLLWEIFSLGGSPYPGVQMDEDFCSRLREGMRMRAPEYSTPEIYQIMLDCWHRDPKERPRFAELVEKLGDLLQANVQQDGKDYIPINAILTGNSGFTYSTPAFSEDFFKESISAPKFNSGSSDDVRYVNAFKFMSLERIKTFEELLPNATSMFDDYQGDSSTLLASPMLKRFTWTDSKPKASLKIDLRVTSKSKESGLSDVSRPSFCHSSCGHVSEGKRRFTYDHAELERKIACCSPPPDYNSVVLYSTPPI
T7 sequence (P34947 whole entry): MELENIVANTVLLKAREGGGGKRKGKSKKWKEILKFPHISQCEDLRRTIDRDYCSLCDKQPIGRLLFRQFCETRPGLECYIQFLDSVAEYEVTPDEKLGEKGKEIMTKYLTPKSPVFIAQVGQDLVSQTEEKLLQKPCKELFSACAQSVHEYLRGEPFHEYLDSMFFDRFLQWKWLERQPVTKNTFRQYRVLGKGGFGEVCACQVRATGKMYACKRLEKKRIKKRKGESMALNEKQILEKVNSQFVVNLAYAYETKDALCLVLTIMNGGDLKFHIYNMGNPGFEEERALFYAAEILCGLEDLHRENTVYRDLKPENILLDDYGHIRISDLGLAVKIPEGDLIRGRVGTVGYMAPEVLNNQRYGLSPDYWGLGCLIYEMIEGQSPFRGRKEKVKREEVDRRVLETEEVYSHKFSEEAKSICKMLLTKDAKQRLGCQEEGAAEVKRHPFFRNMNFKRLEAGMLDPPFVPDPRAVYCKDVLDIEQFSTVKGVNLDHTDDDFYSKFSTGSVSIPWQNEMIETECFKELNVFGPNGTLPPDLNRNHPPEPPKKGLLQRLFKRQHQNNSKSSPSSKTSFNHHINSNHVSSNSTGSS
T2 sequence (Q00535 whole entry): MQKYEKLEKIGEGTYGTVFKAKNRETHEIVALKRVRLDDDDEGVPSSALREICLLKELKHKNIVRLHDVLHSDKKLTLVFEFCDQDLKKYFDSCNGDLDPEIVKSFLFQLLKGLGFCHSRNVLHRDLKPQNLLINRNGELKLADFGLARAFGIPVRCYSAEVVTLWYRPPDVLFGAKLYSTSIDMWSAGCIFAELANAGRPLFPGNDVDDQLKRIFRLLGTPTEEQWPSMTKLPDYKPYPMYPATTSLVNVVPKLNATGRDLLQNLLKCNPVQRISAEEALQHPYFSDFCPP
T2 sequence (Q15078 99-307 partner limits assumed): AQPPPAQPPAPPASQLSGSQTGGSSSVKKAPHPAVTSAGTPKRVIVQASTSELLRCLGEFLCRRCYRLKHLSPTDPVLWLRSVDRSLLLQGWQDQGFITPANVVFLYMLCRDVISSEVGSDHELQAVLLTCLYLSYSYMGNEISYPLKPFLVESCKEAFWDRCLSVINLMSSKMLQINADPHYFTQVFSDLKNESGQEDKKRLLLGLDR
T4 sequence (Q9HCP0 whole entry): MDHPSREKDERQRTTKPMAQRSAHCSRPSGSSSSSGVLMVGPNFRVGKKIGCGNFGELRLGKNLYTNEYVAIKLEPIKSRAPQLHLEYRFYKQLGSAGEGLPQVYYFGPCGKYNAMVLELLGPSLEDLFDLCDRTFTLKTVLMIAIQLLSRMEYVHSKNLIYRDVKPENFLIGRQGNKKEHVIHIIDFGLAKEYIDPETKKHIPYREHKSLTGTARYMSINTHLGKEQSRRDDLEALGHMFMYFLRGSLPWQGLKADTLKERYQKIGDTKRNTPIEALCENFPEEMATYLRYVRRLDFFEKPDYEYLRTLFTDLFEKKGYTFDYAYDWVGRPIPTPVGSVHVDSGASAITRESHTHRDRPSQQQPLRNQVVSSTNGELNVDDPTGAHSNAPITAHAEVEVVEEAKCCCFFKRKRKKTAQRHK

Row | Structure (SMILES) | Residual activity (CK1alpha1; 1.0E-05 M) | Residual activity (CK1alpha1; 1.0E-06 M) | Residual activity (CDK5/p25NCK; 1.0E-05 M) | Residual activity (CDK5/p25NCK; 1.0E-06 M) | Residual activity (DNAPK; 1.0E-05 M) | Residual activity (DNAPK; 1.0E-06 M) | Residual activity (CK1gamma1; 1.0E-05 M) | Residual activity (CK1gamma1; 1.0E-06 M) | Residual activity (VEGFR1; 1.0E-05 M) | Residual activity (VEGFR1; 1.0E-06 M) | Residual activity (MYLK3; 1.0E-05 M) | Residual activity (MYLK3; 1.0E-06 M) | Residual activity (GRK5; 1.0E-05 M) | Residual activity (GRK5; 1.0E-06 M) | Residual activity (TRKB; 1.0E-05 M) | Residual activity (TRKB; 1.0E-06 M) | Residual activity (SNARK; 1.0E-05 M) | Residual activity (SNARK; 1.0E-06 M) | Residual activity (ITK; 1.0E-05 M) | Residual activity (ITK; 1.0E-06 M)
1 | O=C(Nc1ccc(F)c(Nc2ccc3c(c2)CCCCC3=O)c1)c1cccc(F)c1 [Compound 109] | 102 % of control | 108 % of control | 95 % of control | 95 % of control | 106 % of control | 96 % of control | 57 % of control | 86 % of control | 93 % of control | 101 % of control | 80 % of control | 103 % of control | 103 % of control | 102 % of control | 92 % of control | 101 % of control | 98 % of control | 105 % of control | 82 % of control | 93 % of control
2 | O=C(Cc1ccccc1)Nc1ccc(F)c(Nc2ccc3c(c2)CCCCC3=O)c1 [Compound 100] | 108 % of control | 112 % of control | 90 % of control | 99 % of control | 97 % of control | 95 % of control | 115 % of control | 111 % of control | 93 % of control | 100 % of control | 70 % of control | 97 % of control | 106 % of control | 104 % of control | 74 % of control | 105 % of control | 92 % of control | 107 % of control | 75 % of control | 94 % of control
